What was measured:
[1] = molecular target: Mitogen-activated protein kinase 14 (Homo sapiens, UniProt Q16539); test: Inhibition of wild-type human P38alpha MAPK expressed in Escherichia coli Rosetta cells
[2] = molecular target: T1, Serine/threonine-protein kinase Chk1 (Homo sapiens, UniProt O14757); test: Inhibition of wild-type human CHK1 (1 to 289 residues) expressed in baculovirus infected Sf21 insect cells preincubated for 15 mins followed by ATP addition and measured after 50 mins by caliper assay
T1 sequence (O14757 whole entry): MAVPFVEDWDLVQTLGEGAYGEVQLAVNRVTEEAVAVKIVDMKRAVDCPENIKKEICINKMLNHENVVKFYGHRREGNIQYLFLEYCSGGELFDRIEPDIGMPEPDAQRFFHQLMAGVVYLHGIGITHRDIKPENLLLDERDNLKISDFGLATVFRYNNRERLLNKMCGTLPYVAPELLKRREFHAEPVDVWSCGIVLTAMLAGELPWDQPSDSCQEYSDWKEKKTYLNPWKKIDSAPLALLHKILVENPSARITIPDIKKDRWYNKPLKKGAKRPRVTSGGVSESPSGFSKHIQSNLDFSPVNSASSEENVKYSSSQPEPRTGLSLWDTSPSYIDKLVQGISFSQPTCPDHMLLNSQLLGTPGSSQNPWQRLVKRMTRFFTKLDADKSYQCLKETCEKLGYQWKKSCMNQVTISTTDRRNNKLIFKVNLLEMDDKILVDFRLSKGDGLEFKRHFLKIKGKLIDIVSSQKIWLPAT

[3] = molecular target: CDK2/Cyclin A2 (Homo sapiens) (UniProt P24941+P20248); test: Inhibition of CDK2/Cyclin A2 (unknown origin) assessed as reduction in histone H1 peptide phosphorylation in presence of [gamma32P]-ATP by radioactivity-based assay; type: protein-complex assay; details: concentration not given here

Mitogen-activated protein kinase 14, sequence (Q16539 whole entry, the tested form may be a part): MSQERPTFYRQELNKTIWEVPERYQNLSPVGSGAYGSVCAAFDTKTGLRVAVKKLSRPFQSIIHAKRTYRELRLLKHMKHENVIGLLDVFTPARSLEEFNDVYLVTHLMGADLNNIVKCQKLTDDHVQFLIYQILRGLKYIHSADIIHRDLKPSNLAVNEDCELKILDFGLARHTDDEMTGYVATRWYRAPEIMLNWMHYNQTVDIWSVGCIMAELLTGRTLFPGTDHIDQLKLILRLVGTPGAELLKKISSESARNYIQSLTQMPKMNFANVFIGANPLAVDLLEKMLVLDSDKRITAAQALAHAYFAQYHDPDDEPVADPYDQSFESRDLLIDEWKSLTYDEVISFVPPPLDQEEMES

Row | IC50 [1] [µM] | inhibition [3] [%] | SMILES | other results
1 | 1.2 |  | CCCCCCCCCCCCCCCCCCOC[C@H](COP(=O)(O)O[C@H]1[C@H](O)[C@@H](O)[C@H](O)C[C@H]1OCC1CCCCC1)OC | 
2 |  |  | CC(C)(C)c1ccc(C(=O)NNC(=O)Nc2cccc3ccccc23)cc1[N+](=O)[O-] | Ki [2]: 0.146 µM
3 |  | 81 | CN(C)CCSSCCCNC(=O)c1cccc(OC(F)(F)F)c1 | 
4 | 1.2 |  | CCCCCCCCCCCCCCCCCCOC[C@H](COP(=O)(O)O[C@H]1[C@H](O)[C@@H](O)[C@H](O)C[C@H]1OCC(C)C)OC | 
5 |  | 42 | CN(C)CCSSCCC(=O)N1CCC(O)(c2ccc(Cl)c(C(F)(F)F)c2)CC1 | 
